In paper doi:10.1101/2020.07.09.196246v1 (biorxiv, 2020):

Assays:
[1] = molecular target: T1, zebrafish α9 nAChR (homomeric) (Danio rerio, UniProt A0A8M9PIT7); test: two-electrode voltage clamp, peak inward current, Hill fit; assay type: cell-based
T1 sequence (A0A8M9PIT7 20-580): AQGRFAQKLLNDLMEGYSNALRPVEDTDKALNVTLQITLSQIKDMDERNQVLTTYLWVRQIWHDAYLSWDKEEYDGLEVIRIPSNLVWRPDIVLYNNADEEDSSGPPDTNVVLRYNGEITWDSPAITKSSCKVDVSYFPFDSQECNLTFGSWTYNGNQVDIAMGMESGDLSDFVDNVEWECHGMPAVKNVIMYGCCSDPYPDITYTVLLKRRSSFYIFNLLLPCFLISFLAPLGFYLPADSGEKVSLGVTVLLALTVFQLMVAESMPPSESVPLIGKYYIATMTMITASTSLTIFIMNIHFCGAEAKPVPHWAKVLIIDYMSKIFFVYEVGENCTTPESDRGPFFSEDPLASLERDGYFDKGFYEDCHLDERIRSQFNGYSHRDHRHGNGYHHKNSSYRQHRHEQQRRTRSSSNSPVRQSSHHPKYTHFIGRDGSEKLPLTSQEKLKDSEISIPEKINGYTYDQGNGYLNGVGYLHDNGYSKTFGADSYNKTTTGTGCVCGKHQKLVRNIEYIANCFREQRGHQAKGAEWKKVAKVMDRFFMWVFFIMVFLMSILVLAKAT

[2] = molecular target: T2, zebrafish α9α10 (1:2) nAChR (Danio rerio, UniProt A0A8M9PIT7+Q1LY90); test: as above; assay type: cell-based
T2 sequence (A0A8M9PIT7 20-580): T1 sequence (A0A8M9PIT7 20-580)
T2 sequence (Q1LY90 26-527): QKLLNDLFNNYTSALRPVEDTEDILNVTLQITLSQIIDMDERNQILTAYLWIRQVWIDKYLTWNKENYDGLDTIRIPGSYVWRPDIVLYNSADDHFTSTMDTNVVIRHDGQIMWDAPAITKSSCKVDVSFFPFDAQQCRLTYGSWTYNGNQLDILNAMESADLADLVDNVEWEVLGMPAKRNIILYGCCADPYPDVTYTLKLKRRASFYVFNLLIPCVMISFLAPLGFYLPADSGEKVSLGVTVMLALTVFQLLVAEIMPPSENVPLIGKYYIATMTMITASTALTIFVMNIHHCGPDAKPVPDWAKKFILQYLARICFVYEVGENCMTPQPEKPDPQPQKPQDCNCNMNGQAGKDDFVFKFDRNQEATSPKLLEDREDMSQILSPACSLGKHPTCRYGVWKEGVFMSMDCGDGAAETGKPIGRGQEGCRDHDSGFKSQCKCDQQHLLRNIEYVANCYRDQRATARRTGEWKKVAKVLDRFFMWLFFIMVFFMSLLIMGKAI

EC50 [1]: 11.7 µM
EC50 [2]: 437 µM
Compound: CC(=O)OCC[N+](C)(C)C [ACh, acetylcholine]
